Test results reported in ChEMBL document CHEMBL1153257, “Diphenylpyrazolidinone and benzodiazepine cholecystokinin antagonists: A case of convergent evolution in medicinal chemistry” (Bioorg Med Chem Lett, 1993).

Key:
[1] = molecular target: T1, Cholecystokinin receptor type A (Rattus norvegicus, UniProt P30551); assay: The compound was tested for its activity to inhibit the binding of [3H]-L-364,718 to Cholecystokinin type A receptor in rat pancreas
T1 sequence (P30551 whole entry): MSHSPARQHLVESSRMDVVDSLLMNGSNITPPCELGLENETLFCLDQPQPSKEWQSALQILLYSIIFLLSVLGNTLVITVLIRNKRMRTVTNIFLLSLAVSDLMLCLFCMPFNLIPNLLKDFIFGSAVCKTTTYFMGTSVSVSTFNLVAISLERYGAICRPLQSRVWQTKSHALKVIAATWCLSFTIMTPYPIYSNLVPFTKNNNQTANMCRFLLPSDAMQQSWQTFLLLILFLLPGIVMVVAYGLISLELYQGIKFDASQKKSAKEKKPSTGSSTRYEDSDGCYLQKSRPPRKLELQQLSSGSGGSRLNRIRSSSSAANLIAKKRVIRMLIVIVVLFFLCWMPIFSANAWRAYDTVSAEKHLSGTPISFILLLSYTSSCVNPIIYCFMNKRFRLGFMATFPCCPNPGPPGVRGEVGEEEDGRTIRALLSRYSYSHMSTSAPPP

[2] = molecular target: T2, Gastrin/cholecystokinin type B receptor (Mus musculus, UniProt P56481); assay: The compound was tested for its activity to inhibit the binding of [125I]CCK-8 to Cholecystokinin type B receptor in mouse brain at a pH of 7.4; type: tissue-based
T2 sequence (P56481 whole entry): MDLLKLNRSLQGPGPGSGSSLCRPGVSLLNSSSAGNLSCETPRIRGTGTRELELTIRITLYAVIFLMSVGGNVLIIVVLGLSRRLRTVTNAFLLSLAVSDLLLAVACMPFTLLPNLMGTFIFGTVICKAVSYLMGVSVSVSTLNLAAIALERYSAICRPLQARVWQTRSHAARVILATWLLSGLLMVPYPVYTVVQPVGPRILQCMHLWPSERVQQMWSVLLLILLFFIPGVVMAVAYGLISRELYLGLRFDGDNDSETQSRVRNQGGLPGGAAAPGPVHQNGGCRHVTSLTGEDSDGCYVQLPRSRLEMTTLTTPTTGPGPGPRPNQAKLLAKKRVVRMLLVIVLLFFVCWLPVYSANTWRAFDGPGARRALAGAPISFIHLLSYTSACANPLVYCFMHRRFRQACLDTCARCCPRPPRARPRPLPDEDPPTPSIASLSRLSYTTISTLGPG

[3] = molecular target: T2, Gastrin/cholecystokinin type B receptor; assay: The compound was tested for its activity to inhibit the binding of [125I]CCK-8 to Cholecystokinin type B receptor in mouse brain at a pH of 6.5; type: tissue-based
[4] = molecular target: T1, Cholecystokinin receptor type A; assay: The compound was tested for its activity to inhibit the binding of [125I]CCK-8 to Cholecystokinin type A receptor in rat pancreas

SMILES | IC50 [1] [nM] | IC50 [2] [nM] | IC50 [3] [nM] | IC50 [4] [nM]
CN1C(=O)[C@@H](NC(=O)c2ccc(Cl)cc2)N=C(c2ccccc2)c2ccccc21 |  |  |  | 0.39
O=C1NN(C(=O)Nc2ccc(Br)cc2)[C@H](c2ccccc2)[C@H]1c1ccccc1 | 6400 |  | 370 | 
O=C1NN(C(=S)Nc2ccc(Cl)c(C(F)(F)F)c2)[C@@H](c2ccccc2)[C@@H]1c1ccccc1 | 810 | 550 |  | 
CN1C(=O)[C@H](NC(=O)c2ccc(Cl)cc2)N=C(c2ccccc2)c2ccccc21 |  |  |  | 2.9

The next lines start with results.

IC50 [1] [nM] | IC50 [2] [nM] | IC50 [3] [nM] | SMILES | IC50 [4] [nM]
42 | 880 |  | O=C1NN(C(=S)Nc2ccc(Cl)c(C(F)(F)F)c2)C(c2ccccc2)C1c1ccccc1 (centres undefined) | 
11600 |  | 31 | O=C1NN(C(=O)Nc2ccc(Br)cc2)C(c2ccccc2)C1c1ccccc1 (centres undefined) | 
20500 |  | 19 | O=C1NN(C(=O)Nc2ccc(Br)cc2)[C@@H](c2ccccc2)[C@@H]1c1ccccc1 | 
17 | 1900 |  | O=C1NN(C(=S)Nc2ccc(Cl)c(C(F)(F)F)c2)[C@H](c2ccccc2)[C@H]1c1ccccc1 | 
